One assay concerns the target T1, Peregrin (Homo sapiens) (UniProt P55201).
T1 sequence (whole entry): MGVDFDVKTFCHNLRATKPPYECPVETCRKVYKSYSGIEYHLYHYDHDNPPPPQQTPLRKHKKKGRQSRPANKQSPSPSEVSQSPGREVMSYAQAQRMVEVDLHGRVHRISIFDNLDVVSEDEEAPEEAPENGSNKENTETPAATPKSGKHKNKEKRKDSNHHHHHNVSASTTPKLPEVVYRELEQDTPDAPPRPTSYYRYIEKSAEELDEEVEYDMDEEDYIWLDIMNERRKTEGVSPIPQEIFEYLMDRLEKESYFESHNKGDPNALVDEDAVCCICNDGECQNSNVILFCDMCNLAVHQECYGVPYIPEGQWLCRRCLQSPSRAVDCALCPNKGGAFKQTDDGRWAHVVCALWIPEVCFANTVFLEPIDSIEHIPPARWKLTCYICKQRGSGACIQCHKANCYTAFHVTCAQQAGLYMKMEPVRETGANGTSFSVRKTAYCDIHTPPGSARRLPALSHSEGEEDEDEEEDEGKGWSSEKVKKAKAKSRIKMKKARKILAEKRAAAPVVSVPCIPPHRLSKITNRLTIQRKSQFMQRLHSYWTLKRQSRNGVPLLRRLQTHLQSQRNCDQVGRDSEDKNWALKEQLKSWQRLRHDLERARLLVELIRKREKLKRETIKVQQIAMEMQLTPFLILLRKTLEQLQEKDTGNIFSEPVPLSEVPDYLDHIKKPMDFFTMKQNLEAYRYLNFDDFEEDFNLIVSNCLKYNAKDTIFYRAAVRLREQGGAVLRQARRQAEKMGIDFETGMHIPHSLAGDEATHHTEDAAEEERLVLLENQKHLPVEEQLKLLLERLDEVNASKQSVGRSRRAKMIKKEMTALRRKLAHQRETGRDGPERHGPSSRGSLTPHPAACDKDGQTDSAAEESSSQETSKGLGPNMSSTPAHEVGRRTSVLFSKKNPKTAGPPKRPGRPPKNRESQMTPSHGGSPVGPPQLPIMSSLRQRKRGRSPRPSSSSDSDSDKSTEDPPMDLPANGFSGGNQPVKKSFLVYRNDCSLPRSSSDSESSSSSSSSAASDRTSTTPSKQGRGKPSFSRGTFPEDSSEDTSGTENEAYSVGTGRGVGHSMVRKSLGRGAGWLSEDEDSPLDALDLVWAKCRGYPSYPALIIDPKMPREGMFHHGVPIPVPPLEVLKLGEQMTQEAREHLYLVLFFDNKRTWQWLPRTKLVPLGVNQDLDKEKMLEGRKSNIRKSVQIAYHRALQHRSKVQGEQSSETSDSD
Particulars: Compound concentration 20.0 uM.

The target of assay [1] is Fibroblast growth factor receptor 2 (Homo sapiens) (UniProt P21802). Particulars: Compound concentration 20.0 uM.
Chain of Fibroblast growth factor receptor 2 (Homo sapiens) (P21802 22-821 limits assumed): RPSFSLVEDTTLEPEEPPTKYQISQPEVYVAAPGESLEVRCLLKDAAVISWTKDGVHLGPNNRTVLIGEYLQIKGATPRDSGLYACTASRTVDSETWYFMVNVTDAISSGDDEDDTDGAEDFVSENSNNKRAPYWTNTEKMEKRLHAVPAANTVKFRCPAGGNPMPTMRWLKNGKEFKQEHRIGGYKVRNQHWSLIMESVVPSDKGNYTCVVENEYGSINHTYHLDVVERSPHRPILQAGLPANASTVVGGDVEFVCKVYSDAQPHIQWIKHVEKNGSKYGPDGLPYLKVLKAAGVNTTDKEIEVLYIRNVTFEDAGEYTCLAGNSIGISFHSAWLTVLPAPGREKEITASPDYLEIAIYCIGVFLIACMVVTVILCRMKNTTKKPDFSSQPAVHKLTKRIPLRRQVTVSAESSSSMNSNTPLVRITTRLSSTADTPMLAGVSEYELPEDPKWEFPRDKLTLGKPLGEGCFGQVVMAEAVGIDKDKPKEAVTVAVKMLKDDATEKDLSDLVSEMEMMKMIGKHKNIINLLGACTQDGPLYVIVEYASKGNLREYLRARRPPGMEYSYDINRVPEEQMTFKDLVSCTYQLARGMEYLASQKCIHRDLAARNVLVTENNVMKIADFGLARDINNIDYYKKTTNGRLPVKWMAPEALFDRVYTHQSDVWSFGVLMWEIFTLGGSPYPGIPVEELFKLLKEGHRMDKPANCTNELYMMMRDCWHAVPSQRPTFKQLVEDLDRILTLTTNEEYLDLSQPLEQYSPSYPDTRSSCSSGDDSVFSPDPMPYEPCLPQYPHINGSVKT
Description: Thermal Shift Assay. Domain: start/stop: T457-E768

SMILES strings stand for the structures. Residues, ends and D or L forms follow the SMILES beside them. *: point of attachment. Cbz = O=C(OCc1ccccc1)*; CH2F = FC*

Take `CCCCCn1c(C)c(C(=O)c2cccc3ccccc23)c2ccccc21`: the ΔTm on Peregrin (Homo sapiens) was 2.08 °C; in assay [1], 0.39 °C. Regarding `CCCSc1nc(N[C@@H]2C[C@H]2c2ccc(F)c(F)c2)c2nnn([C@@H]3C[C@H](OCCO)[C@@H](O)[C@H]3O)c2n1`, the thermal shift (ΔTm) at Peregrin (Homo sapiens) is 0.55 °C; in assay [1], -0.32 °C.

Take `Cc1cc2cc(NS(=O)(=O)c3ccc(C#N)cc3)ccc2n(C)c1=O`: the ΔTm on Peregrin (Homo sapiens) was 8.89 °C; in assay [1] it was 0.4 °C. In the case of `O=C(O)C1=CCCN(CCON=C(c2ccccc2)c2ccccc2)C1`, the figures for the ΔTm (at Peregrin (Homo sapiens); in assay [1]) were 0.57 °C and 0.48 °C, respectively. On to `CCN(CC)S(=O)(=O)c1cc(Nc2nccc(-c3ccnc(-c4ccc(NC(=O)NC)cc4)c3)n2)ccc1Cl`, for which the results for the ΔTm (on Peregrin (Homo sapiens); in assay [1]) were -7.45 °C and -4.8 °C, respectively.

As to `CN1Cc2c(Cl)cc(Cl)cc2[C@H](c2cccc(S(=O)(=O)NCCOCCOCCNC(=O)NCCCCNC(=O)NCCOCCOCCNS(=O)(=O)c3cccc([C@@H]4CN(C)Cc5c(Cl)cc(Cl)cc54)c3)c2)C1`, the results for the ΔTm (at Peregrin (Homo sapiens); in assay [1]) were 0.43 °C and -0.42 °C, respectively.

`CC(=O)Nc1ccc(C(=O)Nc2ccc(F)cc2N)cc1`: the ΔTm amounted to 1.03 °C at Peregrin (Homo sapiens) and 0.76 °C in assay [1].

As to `COc1cc(Nc2ncc(F)c(Nc3ccc4c(n3)N(COP(=O)(O)O)C(=O)C(C)(C)O4)n2)cc(OC)c1OC`, the results for the ΔTm (on Peregrin (Homo sapiens); in assay [1]) were -0.81 °C and 4.69 °C, respectively.

Consider `O=C(N(CCc1ccccc1)C1CCCCC1)n1ncc(-c2ccc(OC(F)(F)F)cc2)n1`, for which the values for the ΔTm (at Peregrin (Homo sapiens); in assay [1]) were 1.62 °C and -0.24 °C, respectively. As to `O=C(NC(Cc1ccccc1)C(=O)NC(Cc1ccccc1)C(=O)CF)OCc1ccccc1` (stereo not drawn) (Cbz-Phe-Phe-CH2F; configuration not given here), the ΔTm at Peregrin (Homo sapiens) was found to be 1.77 °C; in assay [1], 0.39 °C. Regarding `O=C(NCC1CCOCC1)c1n[nH]cc1NC(=O)c1c(F)cccc1F`, the ΔTm was -1.34 °C on Peregrin (Homo sapiens) and 0.69 °C in assay [1]. The corresponding values for `CCCCNc1cc(C(=O)O)cc(S(N)(=O)=O)c1Oc1ccccc1` are 0.81 °C and -0.15 °C. For `CCC[C@@H]1CNCc2c1[nH]c(=O)c(C#N)c2N1CCC2(CC1)CC2` the same measures were -1.25 °C and 0.64 °C. Regarding `O=C(CN1CCN(c2ccc(F)cn2)CC1)Nc1nc2c(s1)CCCC2`, the results for the ΔTm (on Peregrin (Homo sapiens); in assay [1]) were 2.63 °C and -0.21 °C, respectively. Regarding `CC(C)c1cc(C(=O)N2Cc3ccc(CN4CCN(C)CC4)cc3C2)c(O)cc1O`, the figures for the ΔTm (at Peregrin (Homo sapiens); in assay [1]) were -1.35 °C and 0.44 °C, respectively. For `COc1cc2c(cc1OC)[C@H]1C[C@@H](O)[C@H](CC(C)C)CN1CC2` the same measures were 0.34 °C and 0.33 °C. On to `Cc1cc(S(C)(=O)=O)c(S(C)(=O)=O)cc1C(=O)NC(=N)N`, for which the ΔTm on Peregrin (Homo sapiens) stood at 2.74 °C; in assay [1] it was 0 °C. Take `CCOc1ccc(Cc2cc([C@@H]3O[C@H](CO)[C@@H](O)[C@H](O)[C@H]3O)ccc2Cl)cc1`: the ΔTm was -0.19 °C on Peregrin (Homo sapiens) and 0.15 °C in assay [1]. In the case of `C[C@H](N)C(=O)N1C[C@H](CCCB(O)O)[C@](N)(C(=O)O)C1`, the figures for the ΔTm (on Peregrin (Homo sapiens); in assay [1]) were -0.07 °C and 0.25 °C, respectively.

Consider `NC(=S)c1cccc(-c2cn(C3CCN(S(=O)(=O)C(F)(F)F)CC3)c3cc(CNC(=O)C4CNC4)ccc23)c1`, for which the ΔTm at Peregrin (Homo sapiens) stood at 5.2 °C; in assay [1] it was 0.25 °C.

On to `Cc1ncsc1-c1ccc(CNC(=O)[C@@H]2C[C@@H](O)CN2C(=O)[C@@H](NC(=O)COCCOCCOCCNC(=O)C[C@@H]2N=C(c3ccc(Cl)cc3)c3c(sc(C)c3C)-n3c(C)nnc32)C(C)(C)C)cc1`, for which the thermal shift (ΔTm) on Peregrin (Homo sapiens) was -1.64 °C; in assay [1], 0.61 °C.

Regarding `O=C1Cc2cc(C(=O)N[C@@H]3C[C@H]4CC[C@@H](C3)N4S(=O)(=O)CC3CCN(CCCC(F)(F)F)CC3)c(Cl)cc2N1`, the ΔTm at Peregrin (Homo sapiens) is -0.66 °C; in assay [1], -0.16 °C. Take `CC(=O)N[C@@H](CC(=O)O)C(=O)N[C@@H](CCC(=O)O)C(=O)N[C@H](C(=O)N[C@@H](CC(=O)O)C(=O)CCl)C(C)C`: the ΔTm on Peregrin (Homo sapiens) is -1.75 °C; in assay [1], 0.6 °C. For `O=C1COc2c(cccc2[C@@H](O)CNCCN(C(=O)CCNCCc2ccc(Cl)c(Cl)c2)C2CCCCC2)N1` the same measures were -1.84 °C and 0.36 °C. Take `COc1ccccc1S(=O)(=O)Nc1ccc2c(c1)CN(C)C(=O)N2`: the ΔTm is 1.9 °C on Peregrin (Homo sapiens) and -0.59 °C in assay [1]. With `Cc1cc(C)nc(SCC(=O)Nc2ncc(Cc3cccc(OCc4cn(Cc5ccccc5)nn4)c3)s2)n1`, the ΔTm at Peregrin (Homo sapiens) was -1.46 °C; in assay [1] it was -10.7 °C. `CCOC(=O)c1ccc(-c2ccc(OC(=O)N(C)Cc3cccc(-c4ccncc4)c3)cc2)cc1`: the ΔTm was 3.12 °C on Peregrin (Homo sapiens) and -0.28 °C in assay [1]. Consider `CCC1CCCCN1C(=O)n1ncc(C(O)(c2ccccc2)c2ccccc2)n1` (stereo not drawn), for which the ΔTm is -0.98 °C at Peregrin (Homo sapiens) and -0.25 °C in assay [1]. Consider `COc1cc(-c2cn(C)c(=O)c3cnccc23)cc(OC)c1CN(C)C`, for which the results for the shift in melting temperature (ΔTm) (at Peregrin (Homo sapiens); in assay [1]) were 6.51 °C and 0.18 °C, respectively. `Cn1cc(C(=O)Nc2ccc([C@@H]3C[C@H]3NCC3CC3)cc2)cn1`: the ΔTm at Peregrin (Homo sapiens) was 0.16 °C; in assay [1], -0.53 °C. The corresponding values for `O=C(NCCCc1ccccc1)c1cccc(-c2cc(O)c3ncccc3c2)c1` are 3.29 °C and 0.19 °C. As to `CC(C)Nc1cc(-c2c[nH]c(C(=O)N[C@H](CO)c3cccc(Cl)c3)c2)c(Cl)cn1`, the ΔTm at Peregrin (Homo sapiens) was 0.61 °C; in assay [1] it was 0.33 °C. For `CC(C)(Sc1ccncc1-c1ccc(C#N)c2ccccc12)C(=O)O`, the ΔTm was found to be 0.05 °C on Peregrin (Homo sapiens) and 0.42 °C in assay [1].

Regarding `O=C1/C(=N/Nc2ccc(S(=O)(=O)O)cc2)C(c2ccc([N+](=O)[O-])cc2)=NN1c1ccccc1`, the values for the ΔTm (on Peregrin (Homo sapiens); in assay [1]) were 0.37 °C and 0.4 °C, respectively. As for `CN(C)CCCN(CC[C@H](N)C(=O)O)C[C@H]1O[C@@H](n2cnc3c(N)ncnc32)[C@H](O)[C@@H]1O`, the values for the ΔTm (on Peregrin (Homo sapiens); in assay [1]) were -1.18 °C and -1.19 °C, respectively. With `COC[C@H](NC(=O)c1ccn(S(C)(=O)=O)c1)C(=O)Nc1nc(-c2cccc(-c3ccn(C)n3)c2)cs1`, the ΔTm on Peregrin (Homo sapiens) is -0.52 °C; in assay [1], 0.09 °C. On to `N#Cc1cc(F)cc(Oc2ccc3c(c2C(F)F)[C@@H](O)C(F)(F)S3(=O)=O)c1`, for which the ΔTm at Peregrin (Homo sapiens) is 2.23 °C; in assay [1] it was -0.59 °C. `CS(=O)(=O)c1ccc(-c2cnc(NCc3ccco3)n3cnnc23)cc1`: the ΔTm on Peregrin (Homo sapiens) is -1.15 °C; in assay [1], 0.54 °C. `COC(=O)C1=C(C(=O)OC)[C@@]2([C@@H](Cc3ccc(C)cc3)Nc3ccccc3)C=C[C@@H]1O2`: the thermal shift (ΔTm) at Peregrin (Homo sapiens) was -3.55 °C; in assay [1], 0.51 °C.

On to `CC(C)(C)OC(=O)N1CCN(C(=O)n2cc(-c3ccc(OC(F)(F)F)cc3)nn2)C(Cc2ccccc2)C1` (stereo not drawn), for which the shift in melting temperature (ΔTm) at Peregrin (Homo sapiens) is 0.21 °C; in assay [1], -0.77 °C. The corresponding values for `CC(C)(C)NS(=O)(=O)c1ccc(NC(=O)[C@H](Cc2ccccc2)NC(=O)c2ccc(F)cc2)cc1` are 0.73 °C and 0.56 °C. As for `CC(=O)N1CCC(c2ccc(C(=O)NC(=N)N)cc2C(F)(F)F)CC1`, the values for the ΔTm (at Peregrin (Homo sapiens); in assay [1]) were 1.3 °C and 0.33 °C, respectively. For the molecule `COc1ccc(C(CN(C)C)C2(O)CCCCC2)cc1` (stereo not drawn), the ΔTm is -0.6 °C on Peregrin (Homo sapiens) and 0.29 °C in assay [1]. Regarding `CN1C[C@@H]2[C@H](C1)[C@H]2CN(Cc1ccc(F)c(Cl)c1)C(=O)c1cn(C)cn1`, the values for the ΔTm (at Peregrin (Homo sapiens); in assay [1]) were 1.67 °C and 0.05 °C, respectively. The corresponding values for `O=S(=O)(CSc1nnc(Br)n1Cc1ccc(Br)c2ccccc12)Nc1cccnc1` are 1.59 °C and -0.32 °C.

Regarding `NCCCOc1cc2ccccc2cc1C(=O)NCCOc1cc2ccccc2cc1C(=O)Nc1ccc(Cl)cc1O`, the thermal shift (ΔTm) on Peregrin (Homo sapiens) is 0 °C; in assay [1] it was -1.59 °C. Consider `Cc1ccc2c(c1)nc(/C=C/c1cccc3cccnc13)n2-c1cccc(OCCCN2CCN(C)CC2)c1`, for which the ΔTm amounted to 0.16 °C at Peregrin (Homo sapiens) and 0.24 °C in assay [1]. Regarding `CN1CCN(c2ccc3nc(-c4c(N)c5c(F)cccc5[nH]c4=O)[nH]c3c2)CC1`, the ΔTm at Peregrin (Homo sapiens) is -0.73 °C.

With `COc1ccccc1C(=O)Nc1cc2c(cc1N1CCCCC1)n(C)c(=O)n2C`, the ΔTm in assay [1] came to 0.52 °C. For `COc1cc(Nc2ncc(F)c(Nc3ccc4c(n3)NC(=O)C(C)(C)O4)n2)cc(OC)c1OC`, at Peregrin (Homo sapiens), the ΔTm is -0.89 °C. Consider `COc1ccccc1C(=O)Nc1cc2c(cc1N1CCNC[C@H]1C)n(C)c(=O)n2C`, for which the ΔTm in assay [1] stood at 0.68 °C.

These data come from ChEMBL document CHEMBL5724796, “Tm Shift (DSF) assay results for EUbOPEN Chemogenomics Library” (2024).
